# Assay results from US20240109885A1, “2,3-DIHYDRO-1H-PYRROLO[3,2-B]PYRIDINE DERIVATIVE, PREPARATION METHOD THEREFOR, AND APPLICATION THEREOF” (Abbisko Therapeutics Co., Ltd, priority 2020, published 2024).
# Experiments:
# Type in all cases: cell-based
# [1] = system: A431 (EGFR-WT); experiment: Cell proliferation assay (CellTiter-Glo), A431 cells; settings: Homo sapiens, A-431, 72 hrs, CTG assay, * = average of multiple measurements
# Method: (§1) I. Cell proliferation assay (i) Reagents and consumables • Fetal bovine serum (FBS) (GBICO, Cat #10099-141); • CellTiter-Glo® Luminescent Cell Viability Assay Kit (Promega, Cat #G7572); • Black transparent flat-bottomed 96-well plate (Corning®, Cat #3603).
# (§2) • SpectraMax Multi-Label Microplate Detector MD, 2104-0010A; • CO2 incubator, Thermo Scientific 3100 Series; • Biosafety cabinet, Thermo Scientific, 1300 Series type A2; • Inverted microscope, Olympus, CKX41SF; • Siemens refrigerator KK25E76TI. (iii) Cell lines and culture conditions
# (§3) (iv) Experimental procedures 1. Cell culture and seeding: • (1) Cells in the logarithmic growth phase were harvested, and counted using a platelet counter. Cell viability was detected by the trypan blue exclusion assay to ensure that the cell viability was above 90%. • (2) The cell concentration was adjusted to achieve the final density; and 90 μL of the cell suspension was added to the 96-well plate. • (3) The cells were incubated in the 96-well plate overnight at 37° C. in the presence of 5% CO2 with 95% humidity. 2. TO benchmark data: • (1) 10 μL of PBS was added to each well of the TO flat plate containing the cells. • (2) The CTG reagent was thawed, and the cell plate was equilibrated to room temperature for 30 min. • (3) An equal volume of CTG solution was added to each well. • (4) The cells were shaken for 5 min on an orbital shaker for lysis. • (5) The cell plate was left at room temperature for 20 min to stabilize luminescent signals. • (6) The values of TO luminescent signals were read. 3. Compound dilution and addition • (1) According to the compound information table, a corresponding volume of DMSO was added to the corresponding compound powder to prepare a 10 mM stock solution. • (2) Compound solutions diluted at 1000 fold and 3.16 fold were prepared. • (3) The compound solution diluted at 1000 fold was diluted at 100 fold with PBS, to prepare the compound solutions at 10 fold in 9 concentrations, with the maximum concentration of […]; and the compound solution was diluted at 3.16 fold. 10 μL of medicament solution was added to each well of the seeded 96-well plate. Three replicate wells were provided for each concentration of the compound, and the final concentration of DMSO was 0.1%. • (4) Cells were placed in the 96-well plate containing the medicament and subsequently cultured for 72 hrs at 37° C. in the presence of 5% CO2 with 95% humidity, and then, CTG assay was conducted. 4. Reading of luminescent signals • (1) The CTG reagent was thawed, and the cell plate was equilibrated to room temperature for 30 min. • (2) An equal volume of CTG solution was added to each well. • (3) The cells were shaken for 5 min on an orbital shaker for lysis.
# (§4) (4) The cell plate was left at room temperature for 20 min to stabilize the luminescent signals. • (5) Luminescent values were read. Data processing
# (§5) The data were analyzed using software GraphPad Prism 7.0, and fitted by the nonlinear S-curve regression to obtain a dose-effect curve, based on which the IC50 value (unit: nM) was calculated, with the specific test results shown in Table 1.
# (§6) Cell viability (%)=(Lum test medicament-Lum culture medium control)/(Lum cell control-Lum culture medium control)×100%.
# [2] = target: Ba/F3 EGFR-D770-N771ins_SVD (Homo sapiens, UniProt P00533, DUP768-770, cells depend on it); experiment: Cell proliferation assay (CellTiter-Glo), Ba/F3 EGFR-D770-N771ins_SVD cells; settings: 72 hrs, CTG assay, * = average of multiple measurements, read-out: Ba/F3 EGFR-D770-N771ins_SVD (nM), IC50 of cell proliferation
# Method: as §1, §2, §3, §4, §5, §6
# [3] = target: Ba/F3 EGFR-V769_D770insASV (Homo sapiens, UniProt P00533, DUP767-769, cells depend on it); experiment: Cell proliferation assay (CellTiter-Glo), Ba/F3 EGFR-V769_D770insASV cells; settings: 72 hrs, CTG assay, * = average of multiple measurements, read-out: Ba/F3 EGFR-V769_D770insASV (nM), IC50 of cell proliferation
# Method: as §1, §2, §3, §4, §5, §6
# Sequence of Ba/F3 EGFR-V769_D770insASV (P00533 with tags, fused parts or gaps DUP767-769): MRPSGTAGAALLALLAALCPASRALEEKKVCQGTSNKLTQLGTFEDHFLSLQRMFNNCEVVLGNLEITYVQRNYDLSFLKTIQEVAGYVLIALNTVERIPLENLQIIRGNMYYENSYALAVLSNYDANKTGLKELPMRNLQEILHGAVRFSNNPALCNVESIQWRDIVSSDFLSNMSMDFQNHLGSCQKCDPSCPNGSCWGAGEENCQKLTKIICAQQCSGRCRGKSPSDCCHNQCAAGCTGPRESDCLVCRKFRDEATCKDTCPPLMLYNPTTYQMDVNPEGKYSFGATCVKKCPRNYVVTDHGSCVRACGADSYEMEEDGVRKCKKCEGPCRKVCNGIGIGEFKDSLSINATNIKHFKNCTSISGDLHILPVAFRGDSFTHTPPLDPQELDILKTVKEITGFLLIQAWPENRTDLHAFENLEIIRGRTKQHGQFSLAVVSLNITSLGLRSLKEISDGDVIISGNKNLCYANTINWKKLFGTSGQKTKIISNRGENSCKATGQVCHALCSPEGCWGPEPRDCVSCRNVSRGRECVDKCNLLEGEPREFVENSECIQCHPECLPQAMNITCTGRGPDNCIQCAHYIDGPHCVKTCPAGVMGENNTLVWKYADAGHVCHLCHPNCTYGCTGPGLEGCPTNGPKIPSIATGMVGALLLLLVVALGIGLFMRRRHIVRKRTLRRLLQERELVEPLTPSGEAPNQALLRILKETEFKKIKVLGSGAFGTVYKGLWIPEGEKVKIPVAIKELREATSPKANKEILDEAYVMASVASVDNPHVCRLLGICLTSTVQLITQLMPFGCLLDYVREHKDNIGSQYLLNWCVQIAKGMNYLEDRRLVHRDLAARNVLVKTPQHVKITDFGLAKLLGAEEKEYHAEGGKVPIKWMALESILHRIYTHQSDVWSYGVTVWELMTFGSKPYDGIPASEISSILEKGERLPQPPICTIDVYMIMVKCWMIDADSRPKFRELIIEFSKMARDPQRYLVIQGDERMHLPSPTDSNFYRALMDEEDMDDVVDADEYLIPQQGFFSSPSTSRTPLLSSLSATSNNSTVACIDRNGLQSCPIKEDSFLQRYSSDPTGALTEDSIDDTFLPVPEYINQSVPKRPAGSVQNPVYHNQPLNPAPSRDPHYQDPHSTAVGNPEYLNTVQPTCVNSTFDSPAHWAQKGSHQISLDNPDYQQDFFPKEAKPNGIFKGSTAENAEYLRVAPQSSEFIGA
# Sequence of Ba/F3 EGFR-D770-N771ins_SVD (P00533 with tags, fused parts or gaps DUP768-770): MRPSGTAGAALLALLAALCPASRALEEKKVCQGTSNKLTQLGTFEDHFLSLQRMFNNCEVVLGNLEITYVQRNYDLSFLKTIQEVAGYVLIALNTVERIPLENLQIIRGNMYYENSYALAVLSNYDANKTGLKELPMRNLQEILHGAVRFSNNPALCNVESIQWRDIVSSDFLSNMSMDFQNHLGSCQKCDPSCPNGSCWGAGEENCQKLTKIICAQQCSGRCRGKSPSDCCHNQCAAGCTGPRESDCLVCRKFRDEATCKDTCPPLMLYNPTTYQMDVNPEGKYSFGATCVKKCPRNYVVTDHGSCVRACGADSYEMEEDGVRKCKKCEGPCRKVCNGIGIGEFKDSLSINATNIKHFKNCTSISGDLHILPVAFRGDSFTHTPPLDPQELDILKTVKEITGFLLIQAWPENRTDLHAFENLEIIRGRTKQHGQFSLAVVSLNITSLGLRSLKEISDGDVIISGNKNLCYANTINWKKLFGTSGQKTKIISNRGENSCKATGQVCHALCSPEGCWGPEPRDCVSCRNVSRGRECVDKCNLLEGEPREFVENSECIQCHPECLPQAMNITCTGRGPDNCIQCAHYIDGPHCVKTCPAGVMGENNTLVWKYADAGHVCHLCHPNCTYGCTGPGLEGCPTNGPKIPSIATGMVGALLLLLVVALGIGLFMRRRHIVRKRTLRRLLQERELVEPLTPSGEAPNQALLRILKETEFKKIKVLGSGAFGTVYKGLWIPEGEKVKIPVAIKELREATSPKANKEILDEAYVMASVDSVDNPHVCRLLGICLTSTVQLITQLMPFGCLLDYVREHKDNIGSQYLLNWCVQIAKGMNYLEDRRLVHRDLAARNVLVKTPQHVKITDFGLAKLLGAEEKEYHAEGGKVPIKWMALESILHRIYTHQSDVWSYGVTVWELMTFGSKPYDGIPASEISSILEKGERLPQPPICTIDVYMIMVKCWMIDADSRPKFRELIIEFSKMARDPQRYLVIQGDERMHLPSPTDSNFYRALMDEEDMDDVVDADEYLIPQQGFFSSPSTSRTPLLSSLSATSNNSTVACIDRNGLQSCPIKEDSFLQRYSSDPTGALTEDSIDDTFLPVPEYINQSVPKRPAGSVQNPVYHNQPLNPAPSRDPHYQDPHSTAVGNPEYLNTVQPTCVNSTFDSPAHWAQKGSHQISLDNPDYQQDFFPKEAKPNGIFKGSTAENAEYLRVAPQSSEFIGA
IC50 [1] [nM],GI50 [2] [nM],GI50 [3] [nM],SMILES
348,12,35.4,"C=CC(=O)Nc1cc(Nc2nccc(N3CC4(CCC4)c4nc(C)ccc43)n2)c(OCC(F)(F)F)nc1N(C)CCN(C)C [Example 56, N-(2-((2-(dimethylamino)ethyl) (methyl)amino)-5-((4-(5′-methylspiro [cyclobutane-1,3′-pyrrolo[3,2-b]pyridin]-1′(2′H)-yl)pyrimidin-2-yl)amino)-6-(2,2,2-trifluoroethoxy)pyridin-3-yl)acrylamide]"
841,66.3,111,C=CC(=O)Nc1cc(Nc2cc(N3CC(C)(C)c4nc(C)ccc43)ccn2)c(OC)cc1N1CCC[C@@H]1CN(C)C [Example 3]
494,17.1,31.9,"C=CC(=O)Nc1cc(Nc2nccc(N3CC4(CCC4)c4nc(C)ccc43)n2)c(OC(F)F)cc1N(C)CCN(C)C [Example 64, N-(4-(difluoromethoxy)-2-((2-(dimethylamino)ethyl)(methyl)amino)-5-((4-(5′-methylspiro[cyclo-butane-1,3′-pyrrolo[3,2-b]pyridin]-1′(2′H)-yl)pyrimidin-2-yl)amino)phenyl)acrylamide]"
1070,35.8,11.7,"C=CC(=O)Nc1cc(Nc2nccc(N3CC(C)(C)c4ncccc43)n2)c(OC(F)F)cc1N(C)CCN(C)C [Example 45, N-(4-(difluoromethoxy)-5-((4-(3,3-dimethyl-2,3-dihydro-1H-pyrrolo [3,2-b]pyridin-1-yl)pyrimidin-2-yl)amino)-2-((2-(dimethylamino)ethyl)(methyl)amino)phenyl)acrylamide]"
850,25.4,44.3,"C=CC(=O)Nc1cc(Nc2nccc(N3CC(C)(C)c4nc(C)ccc43)n2)c(OCC)cc1N(C)CCN(C)C [Example 24, N-(2-((2-(dimethylamino)ethyl) (methyl)amino)-4-ethoxy-5-((4-(3,3,5-trimethyl-2,3-dihydro-1H-pyrrolo[3,2-b]pyridin-1-yl)pyrimidin-2-yl)amino)phenyl)acrylamide]"
582,21.7,36.3,"C=CC(=O)Nc1cc(Nc2nccc(N3CC4(CCC4)c4ncccc43)n2)c(OC(F)F)cc1N(C)CCN(C)C [Example 62, N-(4-(difluoromethoxy)-2-((2-(dimethylamino)ethyl)(methyl)amino)-5-((4-(spiro[cyclobutane-1,3′-pyrrolo[3,2-b]pyridin]-1′(2′H)-yl)pyrimidin-2-yl)amino)phenyl) acrylamide]"
80.4,3.8,19,"C=CC(=O)Nc1cc(Nc2nccc(N3CC(C)(C)c4nc(C)c(C)cc43)n2)c(OC)cc1N(C)CCN(C)C [Example 21, N-(2-((2-(dimethylamino)ethyl) (methyl)amino)-4-methoxy-5-((4-(3,3,5,6-tetramethyl-2,3-dihydro-1H-pyrrolo[3,2-b]pyridin-1-yl)pyrimidin-2-yl)amino)phenyl)acrylamide]"
402,22.6,21.6,"C=CC(=O)Nc1cc(Nc2nccc(N3CC(C)(C)c4nc(C5CC5)ccc43)n2)c(OC(F)F)cc1N(C)CCN(C)C [Example 46, N-(5-((4-(5-cyclopropyl-3,3-dimethyl-2,3-dihydro-1H-pyrrolo[3,2-b]pyridin-1-yl)pyrimidin-2-yl)amino)-4-(difluoromethoxy)-2-((2-(dimethylamino)ethyl)(methyl)amino)phenyl)acrylamide]"
264,35.5,84.3,"C=CC(=O)Nc1cc(Nc2nccc(N3CC4(CCCC4)c4nc(C)ccc43)n2)c(OC)cc1N(C)CCN(C)C [Example 33, N-(2-((2-(dimethylamino)ethyl) (methyl)amino)-4-methoxy-5-((4-(5′-methylspiro[cyclopentane-1,3′-pyrrolo[3,2-b]pyridin]-1′(2′H)-yl)pyrimidin-2-yl)amino)phenyl)acrylamide]"
815,37,74.8,"C=CC(=O)Nc1cc(Nc2cc(N3CC(C)(C)c4nc(C)ccc43)ccn2)c(OC)nc1N(C)CCN(C)C [Example 15, N-(2-((2-(dimethylamino)ethyl) (methyl)amino)-6-methoxy-5-((4-(3,3,5-trimethyl-2,3-dihydro-1H-pyrrolo[3,2-b]pyridin-1-yl)pyridin-2-yl)amino)pyridin-3-yl)acrylamide]"
53.7,35.7,95.8,"C=CC(=O)Nc1cc(Nc2nccc(N3CC4(CCCCC4)c4nc(C)ccc43)n2)c(OC)cc1N(C)CCN(C)C [Example 32, N-(2-((2-(dimethylamino)ethyl) (methyl)amino)-4-methoxy-5-((4-(5′-methylspiro[cyclohexane-1,3′-pyrrolo[3,2-b]pyridin]-1′(2′H)-yl)pyrimidin-2-yl)amino)phenyl)acrylamide]"
312,23.8,47,"C=CC(=O)Nc1cc(Nc2ncnc(N3CC4(CCC4)c4ncccc43)n2)c(OC)cc1N(C)CCN(C)C [Example 55, N-(2-((2-(dimethylamino)ethyl) (methyl)amino)-4-methoxy-5-((4-(spiro[cyclobutane-1,3′-pyrrolo[3,2-b]pyridin]-1′(2′H)-yl)-1,3,5-triazin-2-yl)amino)phenyl)acrylamide]"
66,23.7,9.1,"C=CC(=O)Nc1cc(Nc2ncnc(N3CC(C)(C)c4nc(C)ccc43)n2)c(OC(C)C)nc1N(C)CCN(C)C [Example 48, N-(2-((2-(dimethylamino)ethyl) (methyl)amino)-6-isopropoxy-5-((4-(3,3,5-trimethyl-2,3-dihydro-1H-pyrrolo[3,2-b]pyridin-1-yl)-1,3,5-triazin-2-yl)amino)pyridin-3-yl) acrylamide]"
18.7,14.1,46.4,"C=CC(=O)Nc1cc(Nc2ncnc(N3CC4(CCC4)c4nc(C)ccc43)n2)c(OC)cc1N(C)CCN(C)C [Example 61, N-(2-((2-(dimethylamino)ethyl) (methyl)amino)-4-methoxy-5-((4-(5′-methylspiro[cyclobutane-1,3′-pyrrolo[3,2-b]pyridin]-1′(2′H)-yl)-1,3,5-triazin-2-yl)amino)phenyl) acrylamide]"
101,42.1,87.4,"C=CC(=O)Nc1cc(Nc2cc(N3CC(C)(C)c4nc(C)ccc43)ncn2)c(OC)cc1N1CCC[C@@H]1CN(C)C [Example 13, (R)-N-(5-((6-(3,3,5-trimethyl-2,3-dihydro-1H-pyrrolo[3,2-b]pyridin-1-yl)pyrimidin-4-yl)amino)-2-(2-((dimethylamino)methyl)pyrrolidin-1-yl)-4-methoxyphenyl)acrylamide]"
22.1,20,45.5,"C=CC(=O)Nc1cc(Nc2ncnc(N3CC4(CCCC4)c4nc(C)ccc43)n2)c(OC)cc1N(C)CCN(C)C [Example 29, N-(2-((2-(dimethylamino)ethyl) (methyl)amino)-4-methoxy-5-((4-(5′-methylspiro[cyclopentane-1,3′-pyrrolo[3,2-b]pyridin]-1′(2′H)-yl)-1,3,5-triazin-2-yl)amino)phenyl) acrylamide]"
1070,60.4,97.9,"C=CC(=O)Nc1cc(Nc2cc(N3CC(C)(C)c4nc(C)ccc43)ccn2)c(OC)cc1N(C)CCN(C)C [Example 2, N-(2-((2-(dimethylamino)ethyl) (methyl)amino)-4-methoxy-5-((4-(3,3,5-trimethyl-2,3-dihydro-1H-pyrrolo[3,2-b]pyridin-1-yl)pyridin-2-yl)amino)phenyl)acrylamide]"
